The values that follow come from US11414384B2, “P300/CBP hat inhibitors” (Constellation Pharmaceuticals, Inc., priority 2018, dated 2022).

Where two headings read alike, the source gives them in different places. Bounds are passed on as bounds.

The assay has as its target p300 HAT domain (residues 1287-1666) (Homo sapiens (Human), UniProt Q09472). In words: p300 HAT SPA assay (scintillation proximity assay, acetylation of biotinylated H3(1-21) peptide). In kind it is biochemical. Particulars: average of at least 2 replicate titrations. The method, then: In a typical experiment the p300 HAT inhibitory activity of the compounds described herein was determined in accordance with the following experimental method.
The expressed protein was purified by Ni2+ affinity, followed by anion exchange chromatography. Appropriate fractions were pooled and buffer exchanged into 20 mM Hepes pH 7.5, 150 mM NaCl, and 1 mM TCEP.
35 μL of the reaction volume was transferred to a 384-well streptavidin FlashPlate (PerkinElmer) using a Bravo liquid handler (Velocity 11) and incubated for 1.5 hr at RT. […] Data were analyzed in Genedata to determine inhibitor IC50 values.
(In general: SPA uses beads or plates that emit light when radiolabelled molecules are held near them.)

The mark [1] stands for this setting: p300 HAT domain, read-out: P300 HAT SPA IC50.

Chain of p300 HAT domain (residues 1287-1666) (Q09472 1287-1666): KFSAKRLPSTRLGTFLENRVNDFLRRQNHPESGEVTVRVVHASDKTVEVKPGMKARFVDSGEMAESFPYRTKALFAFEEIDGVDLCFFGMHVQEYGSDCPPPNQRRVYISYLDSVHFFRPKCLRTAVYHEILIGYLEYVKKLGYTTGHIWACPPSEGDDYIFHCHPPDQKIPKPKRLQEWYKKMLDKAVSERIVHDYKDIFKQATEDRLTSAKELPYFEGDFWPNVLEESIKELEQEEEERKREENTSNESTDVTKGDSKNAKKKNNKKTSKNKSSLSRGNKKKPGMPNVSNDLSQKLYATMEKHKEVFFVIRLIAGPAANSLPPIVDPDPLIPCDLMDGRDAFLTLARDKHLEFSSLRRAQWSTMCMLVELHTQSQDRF

For the compound `O=C(c1c[nH]c2cc(-c3ccccn3)ccc12)C(NCCc1ccc(Cl)cc1)c1ccccc1` (single isomer, unassigned) [108 Isomer 2], the half-inhibitory concentration (IC50) (in general, the concentration that inhibits the measured activity by half) under setting [1] turned out to be 2.64 µM.
Under “P300 HAT SPA IC50, p300 HAT domain”, `CCn1cc(C(=O)C(NCCc2ccc(Cl)cc2)c2ccccc2)c2ccccc21` (single isomer, unassigned) [129 Isomer 1] had a half-maximal inhibitory concentration (IC50) of 11.8 µM.
For `Cn1cc(-c2ccc3c(C(=O)C(NCCc4ccc(C(=O)O)cc4Cl)c4ccccc4)c[nH]c3c2)cn1` (single isomer, unassigned) [142 Isomer 1], the half-maximal inhibitory concentration (IC50) under setting [1] was found to be 3.27 µM.
In the case of `NS(=O)(=O)c1ccc(CCNC(C(=O)c2c[nH]c3cc(C(F)(F)F)ccc23)c2ccccc2)cc1` (single isomer, unassigned) [1 Isomer 2], the half-maximal inhibitory concentration (IC50) under setting [1] is more than 30 µM.
With `O=C(c1c[nH]c2ccccc12)C(NCCc1ccccc1Cl)c1ccccc1` (single isomer, unassigned) [3 Isomer 2], the half-maximal inhibitory concentration (IC50) under setting [1] amounted to 6.39 µM.
For the compound `CN1CCN(c2ccc3c(C(=O)C(NCCc4ccc(C#N)cc4)c4ccccc4)c[nH]c3n2)CC1` (single isomer, unassigned) [121 Isomer 1], under setting [1], the half-inhibitory concentration (IC50) was found to be 2.2 µM.
On to `COc1cccc(CCNC(C(=O)c2c[nH]c3ccccc23)c2ccccc2)c1` (single isomer, unassigned) [7 Isomer 1], for which the half-maximal inhibitory concentration (IC50) under setting [1] worked out at 7.35 µM.
Still for that read-out and setting: to `COc1ccc2c(C(=O)C(NCCc3ccc(Cl)cc3)c3ccccc3)c[nH]c2c1` (single isomer, unassigned) [60 Isomer 1] belongs 27.8 µM; to `Cn1cc(-c2ccc3c(C(=O)C(NCCc4ccc(S(N)(=O)=O)cc4)c4ccccc4)c[nH]c3c2)cn1` (single isomer, unassigned) [66 Isomer 1], 0.96 µM; to `CC(NCCc1ccc(Cl)cc1)C(=O)c1c[nH]c2ccccc12` (single isomer, unassigned) [23 Isomer 1], more than 60 µM.
In the case of `COCCNC(=O)c1cccc2c(C(=O)C(NCCc3ccc(Cl)cc3Cl)c3ccccc3)c[nH]c12` (single isomer, unassigned) [150 Isomer 2], the half-maximal inhibitory concentration (IC50) under setting [1] is more than 30 µM.
Turning to `CCNC(=O)c1ccc2c(C(=O)C(NCC(C)c3ccc(C#N)cc3)c3ccccc3)c[nH]c2c1` (single isomer, unassigned) [75 Isomer 1], under setting [1], the concentration for half-maximal inhibition (IC50) amounted to 0.718 µM.
Consider `Cn1cc(-c2ccc3c(C(=O)C(NCCc4ccc(C(N)=O)cc4)c4ccccc4)cnn3c2)cn1` (single isomer, unassigned) [179 Isomer 2], for which the concentration for half-maximal inhibition (IC50) under setting [1] stood at 0.248 µM.
For the compound `N#Cc1ccc(CCNC(C(=O)c2c[nH]c3cc(C(=O)NC4CS(=O)(=O)C4)ccc23)c2ccccc2)cc1` (single isomer, unassigned) [166 Isomer 1], the IC50 under setting [1] was found to be 0.123 µM.
Regarding `CNC(=O)Cc1ccc(CCNC(C(=O)c2c[nH]c3ccccc23)c2ccccc2)cc1` (single isomer, unassigned) [136 Isomer 2], under setting [1], the IC50 was more than 60 µM.
On to `Cc1cccc2c(C(=O)C(NC(C)Cc3ccc(Cl)cc3Cl)c3ccccc3)c[nH]c12` (single isomer, unassigned) [68 Isomer 4], for which the half-inhibitory concentration (IC50) under setting [1] is more than 30 µM.
On to `O=C(c1c[nH]c2ccccc12)C(NCCc1ccc(Cl)c(Cl)c1)c1ccccc1` (single isomer, unassigned) [20 Isomer 2], for which the IC50 under setting [1] worked out at 3.07 µM.
Same read-out and setting: to `CS(=O)(=O)CCCNC(=O)c1ccc2c(C(=O)C(NCCc3ccc(C#N)cc3)c3ccccc3)c[nH]c2c1` (single isomer, unassigned) [175 Isomer 1] belongs 0.917 µM.
Turning to `N#Cc1ccc(CCNC(C(=O)c2c[nH]c3cc(C(=O)N4CCCC4)ccc23)c2ccccc2)cc1` (single isomer, unassigned) [171 Isomer 1], the IC50 under setting [1] was more than 5 µM.
Turning to `CC(Cc1ccc(Cl)cc1)NC(C(=O)c1c[nH]c2cc(-c3cnn(C)c3)ccc12)c1ccccc1` (single isomer, unassigned) [92 Isomer 1], the IC50 under setting [1] came out at 2.1 µM.
For `C[C@H](NC(=O)c1ccc2c(C(=O)C(NCCc3ccc(C#N)cc3)c3ccccc3)c[nH]c2c1)C(F)(F)F` (single isomer, unassigned) [169 Isomer 2], the IC50 under setting [1] was found to be 0.0871 µM.
Consider `N#Cc1ccc(CCNC(C(=O)c2c[nH]c3cc(C(=O)NCC(F)(F)F)ccc23)c2ccccc2)cc1` (single isomer, unassigned) [157 Isomer 1], for which the IC50 under setting [1] is 1.2 µM.
Turning to `O=C(c1c[nH]c2ccccc12)C(NCCc1ccc(Cl)cc1Cl)c1ccccc1` (single isomer, unassigned) [19 Isomer 1], the half-maximal inhibitory concentration (IC50) under setting [1] is more than 60 µM.
Same read-out and setting: to `CCC(CNC(C(=O)c1c[nH]c2ccccc12)c1ccccc1)c1ccc(Cl)cc1` (single isomer, unassigned) [59 Isomer 1] belongs more than 30 µM.
Consider `O=C(O)c1ccc(CCNC(C(=O)c2c[nH]c3ccccc23)c2ccccc2)cc1` (single isomer, unassigned) [132 Isomer 2], for which, under setting [1], the 50% inhibitory concentration (IC50) was 17.9 µM.
`CN(C)C(=O)c1ccc2c(C(=O)C(NCCc3ccc(C#N)cc3)c3ccccc3)c[nH]c2c1` (single isomer, unassigned) [172 Isomer 1]: the concentration for half-maximal inhibition (IC50) under setting [1] turned out to be 4.24 µM.
In the case of `CC(CNC(C(=O)c1cnn2cc(C(=O)NC[C@@H](C)O)ccc12)c1ccccc1)c1ccc(C#N)cc1` (single isomer, unassigned) [70 Isomer 1], the IC50 under setting [1] was more than 2 µM.
Turning to `CCN(CC)C(=O)c1ccc2c(C(=O)C(NCCc3ccc(C#N)cc3)c3ccccc3)c[nH]c2c1` (single isomer, unassigned) [165 Isomer 2], the IC50 under setting [1] is 2.36 µM.
`CC(Cc1ccc(Cl)cc1)NC(C(=O)c1c[nH]c2cc(-c3cnn(C)c3)ccc12)c1ccccc1` (single isomer, unassigned) [92 Isomer 2]: the half-inhibitory concentration (IC50) under setting [1] is more than 30 µM.
As for `CC(C)NC(=O)c1ccc2c(C(=O)C(NCCc3ccc(C#N)cc3)c3ccccc3)c[nH]c2c1` (single isomer, unassigned) [167 Isomer 2], the IC50 under setting [1] stood at 0.746 µM.
With `O=C(c1c[nH]c2ccccc12)C(NCCc1ccc(-c2c[nH]nn2)cc1)c1ccccc1` (single isomer, unassigned) [57 Isomer 2], the IC50 under setting [1] was 0.287 µM.
Same read-out and setting: in the case of `N#Cc1ccc(CCNC(C(=O)c2c[nH]c3cc(C(=O)N4CCCC4)ccc23)c2ccccc2)cc1` (single isomer, unassigned) [171 Isomer 2] it was 0.932 µM; in that of `CN1CCN(c2ccc3c(C(=O)C(NCCc4ccc(S(N)(=O)=O)cc4)c4ccccc4)c[nH]c3c2)CC1` (single isomer, unassigned) [124 Isomer 1], more than 5 µM.
In the case of `O=C(c1c[nH]c2cc(-c3ccncc3)ccc12)C(NCCc1ccc(Cl)cc1)c1ccccc1` (single isomer, unassigned) [89 Isomer 2], under setting [1], the IC50 came to 0.966 µM.
Turning to `NS(=O)(=O)c1ccc(CCNC(C(=O)c2c[nH]c3c(Cl)c(Cl)ccc23)c2ccccc2)cc1` (single isomer, unassigned) [55 Isomer 1], the IC50 under setting [1] is 7.83 µM.
Consider `CNC(=O)CCc1ccc2c(C(=O)C(NCCc3ccc(F)cc3)c3ccccc3)c[nH]c2c1` (single isomer, unassigned) [158 Isomer 2], for which the half-inhibitory concentration (IC50) under setting [1] was more than 5 µM.
With `Cn1cc(-c2ccc3c(C(=O)C(NCCc4ccc(C(N)=O)cc4)c4ccccc4)c[nH]c3c2)cn1` (single isomer, unassigned) [139 Isomer 1], under setting [1], the IC50 was 8.29 µM.
On to `Cn1cc(-c2ccc3c(C(=O)C(NCCc4ccc(S(N)(=O)=O)cc4)c4ccccc4)cnn3c2)cn1` (single isomer, unassigned) [101 Isomer 1], for which the IC50 under setting [1] amounted to 0.166 µM.
With `CC(CNC(C(=O)c1cnn2cc(-c3cnn(C)c3)ccc12)c1ccccc1)c1ccc(C#N)cc1` (single isomer, unassigned) [102 Isomer 3], the IC50 under setting [1] worked out at 0.212 µM.
With `O=C(c1c[nH]c2cc(-c3ccncc3)ccc12)C(NCCc1ccc(Cl)cc1)c1ccccc1` (single isomer, unassigned) [89 Isomer 1], the half-maximal inhibitory concentration (IC50) under setting [1] was 27.2 µM.
The same measure, in the same setting: to `NC(=O)c1ccc(CCNC(C(=O)c2c[nH]c3ccccc23)c2ccccc2)cc1` (single isomer, unassigned) [133 Isomer 1] belongs 22.9 µM; to `COc1ccccc1CCNC(C(=O)c1c[nH]c2ccccc12)c1ccccc1` (single isomer, unassigned) [6 Isomer 1], more than 60 µM.
With `O=C(c1c[nH]c2ccccc12)C(NCCc1ccc(OC(F)(F)F)cc1)c1ccccc1` (single isomer, unassigned) [40 Isomer 1], under setting [1], the IC50 is more than 60 µM.
As for `CNC(=O)c1ccc(CCNC(C(=O)c2c[nH]c3ccccc23)c2ccccc2)cc1` (single isomer, unassigned) [134 Isomer 1], the IC50 under setting [1] is more than 60 µM.
As for `O=C(c1c[nH]c2ccccc12)C(NCCc1ccc(Cl)cc1)C1CCCC1` (single isomer, unassigned) [25 Isomer 1], the half-maximal inhibitory concentration (IC50) under setting [1] is more than 60 µM.
For `CC(Cc1ccc(Cl)cc1)NC(C(=O)c1c[nH]c2ccccc12)c1ccccc1` (single isomer, unassigned) [27 Isomer 4], the 50% inhibitory concentration (IC50) under setting [1] is more than 60 µM.
With `O=C(c1c[nH]c2ccccc12)C(NCCc1ccc(Cl)c(Cl)c1)c1ccccc1` (single isomer, unassigned) [20 Isomer 1], the concentration for half-maximal inhibition (IC50) under setting [1] was more than 60 µM.
Still for that read-out and setting: in the case of `CCNC(=O)c1ccc2c(C(=O)C(NCCc3ccc(C#N)cc3)c3ccccc3)cnn2c1` (single isomer, unassigned) [73 Isomer 2] it was 0.954 µM.
As to `O=C(c1c[nH]c2ccccc12)C(NCCN1CCOCC1)c1ccccc1` (single isomer, unassigned) [18 Isomer 2], under setting [1], the 50% inhibitory concentration (IC50) is more than 60 µM.
On the same count and under the same terms, to `NS(=O)(=O)c1ccc(CCNC(C(=O)c2c[nH]c3c(C(F)(F)F)cccc23)c2ccccc2)cc1` (single isomer, unassigned) [50 Isomer 1] belongs 6.93 µM; to `Cc1ccc2c(C(=O)C(NCCc3ccc(S(N)(=O)=O)cc3)c3ccccc3)c[nH]c2c1` (single isomer, unassigned) [56 Isomer 1], more than 60 µM.
